Legend:
IVY MORNINGLORY = assay: Test D; type: in vivo, Ipomoea hederacea
PURPLE NUTSEDGE = assay: Test D; type: in vivo, Cyperus rotundus
BARNYARDGRASS = assay: Test D; type: in vivo, Echinochloa crus-galli
Procedure: (§1) The Corn and Sorghum Herbicide Test included the following species in both the preemergence and postemergence evaluations:
(§2) Postemergence plantings were grown in Sassafras sandy loam soil. Corn and soybeans were grown in separate 25 cm diameter containers. Sorghum and the seven grass weed species were grown in two 18 cm diameter containers, 4 species per container. The seven broadleaf weed species were also grown in two 18 cm diameter containers, 4 species in one container, 3 species in the second container. One additional planting of corn in an 18 cm diameter container was made. The soil surface of this additional container of corn was covered with the absorbent, perlite, before spray treatment so that test chemicals would enter the plant only via the foliage. The plants were grown 10-21 days, dependent upon the species and then sprayed postemergence with the test chemicals dissolved in a nonpytotoxic solvent.
(§3) Preemergence plantings were grown in fertilized Tama silt loam soil. These plantings are identical to those described in the postemergence section, with the exception of the corn planting having perlite covering the soil surface. These plantings were made the day of or the day before spraying the test chemicals dissolved in a nonphytotoxic solvent.
(§4) Treated plants and controls were maintained in the greenhouse for 2 to 4 weeks. Visual planting response ratings were made on a percentage scale of 0 to 100 in comparison with a control where 0=no injury, and 100=death.

JOHNSONGRASS = assay: Test D; type: in vivo, Sorghum halepense
LADY SMARTWEED = assay: Test D; type: in vivo, Polygonum persicaris
Procedure: as §1, §2, §3, §4

JIMSONWEED = assay: Test D; type: in vivo, Datura stramonium
LAMBSQUARTER = assay: Test D; type: in vivo, Chenopodium album
PERLITE CORN = assay: Test D, soil covered with perlite; type: in vivo, Zea mays
Procedure: as §1, §2, §4

SMILES: C=C(c1ccccc1)C(O)(Cn1cncn1)c1ccc(Cl)cc1Cl (centres unmarked) [Example 50, 2-(2,4-Dichlorophenyl)-3-phenyl-1-(1H-1,2,4-triazol-1-yl)-3-buten-2-ol]
- plant response (IVY MORNINGLORY; POSTEMERGENCE 0250 GM/HA): 20%
- plant response (IVY MORNINGLORY; POSTEMERGENCE 0500 GM/HA): 60%
- plant response (IVY MORNINGLORY; PREEMERGENCE 0064 GM/HA): 0%
- plant response (IVY MORNINGLORY; PREEMERGENCE 0125 GM/HA): 30%
- plant response (IVY MORNINGLORY; PREEMERGENCE 0250 GM/HA): 40%
- plant response (IVY MORNINGLORY; PREEMERGENCE 0500 GM/HA): 65%
- plant response (PURPLE NUTSEDGE; POSTEMERGENCE 0250 GM/HA): 0%
- plant response (PURPLE NUTSEDGE; POSTEMERGENCE 0500 GM/HA): 0%
- plant response (PURPLE NUTSEDGE; PREEMERGENCE 0064 GM/HA): 0%
- plant response (PURPLE NUTSEDGE; PREEMERGENCE 0125 GM/HA): 0%
- plant response (PURPLE NUTSEDGE; PREEMERGENCE 0250 GM/HA): 0%
- plant response (PURPLE NUTSEDGE; PREEMERGENCE 0500 GM/HA): 30%
- plant response (BARNYARDGRASS; POSTEMERGENCE 0250 GM/HA): 0%
- plant response (BARNYARDGRASS; POSTEMERGENCE 0500 GM/HA): 0%
- plant response (BARNYARDGRASS; PREEMERGENCE 0064 GM/HA): 0%
- plant response (BARNYARDGRASS; PREEMERGENCE 0125 GM/HA): 0%
- plant response (BARNYARDGRASS; PREEMERGENCE 0250 GM/HA): 20%
- plant response (BARNYARDGRASS; PREEMERGENCE 0500 GM/HA): 45%
- plant response (JOHNSONGRASS; POSTEMERGENCE 0250 GM/HA): 20%
- plant response (JOHNSONGRASS; POSTEMERGENCE 0500 GM/HA): 40%
- plant response (JOHNSONGRASS; PREEMERGENCE 0064 GM/HA): 35%
- plant response (JOHNSONGRASS; PREEMERGENCE 0125 GM/HA): 70%
- plant response (JOHNSONGRASS; PREEMERGENCE 0250 GM/HA): 90%
- plant response (JOHNSONGRASS; PREEMERGENCE 0500 GM/HA): 95%
- plant response (LADY SMARTWEED; POSTEMERGENCE 0250 GM/HA): 30%
- plant response (LADY SMARTWEED; POSTEMERGENCE 0500 GM/HA): 40%
- plant response (LADY SMARTWEED; PREEMERGENCE 0064 GM/HA): 0%
- plant response (LADY SMARTWEED; PREEMERGENCE 0125 GM/HA): 0%
- plant response (LADY SMARTWEED; PREEMERGENCE 0250 GM/HA): 20%
- plant response (LADY SMARTWEED; PREEMERGENCE 0500 GM/HA): 40%
- plant response (JIMSONWEED; POSTEMERGENCE 0250 GM/HA): 20%
- plant response (JIMSONWEED; POSTEMERGENCE 0500 GM/HA): 45%
- plant response (JIMSONWEED; PREEMERGENCE 0064 GM/HA): 0%
- plant response (JIMSONWEED; PREEMERGENCE 0125 GM/HA): 25%
- plant response (JIMSONWEED; PREEMERGENCE 0250 GM/HA): 50%
- plant response (JIMSONWEED; PREEMERGENCE 0500 GM/HA): 70%
- plant response (LAMBSQUARTER; POSTEMERGENCE 0250 GM/HA): 65%
- plant response (LAMBSQUARTER; POSTEMERGENCE 0500 GM/HA): 80%
- plant response (LAMBSQUARTER; PREEMERGENCE 0064 GM/HA): 0%
- plant response (LAMBSQUARTER; PREEMERGENCE 0125 GM/HA): 35%
- plant response (LAMBSQUARTER; PREEMERGENCE 0250 GM/HA): 75%
- plant response (LAMBSQUARTER; PREEMERGENCE 0500 GM/HA): 90%
- plant response (PERLITE CORN; POSTEMERGENCE 0250 GM/HA): 0%
- plant response (PERLITE CORN; POSTEMERGENCE 0500 GM/HA): 0%
